In the supplement of paper PMC11424490:

Legend:
Test in all cases: combination cScore with sotorasib (Bliss gap around IC50) (%PoC); higher = stronger additive effect
[1] = tested on: SW837
In short: (§1)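 The score averages the gap between expected and measured viability under Bliss independence, taken over a field around the IC50 of each single agent or, where an IC50 was not reached, at the highest concentrations. Viability came from CellTiter-Glo luminescence, normalised to vehicle wells as percent of control and fitted with four-parameter curves. NCI-H2122, NCI-H358 and SW837 cells were dosed in concentration matrices 24 h after seeding and grown for 72 h, or 144 h for SW837.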

[2] = tested on: NCI-H358
In short: as §1

[3] = tested on: NCI-H2122
In short: as §1

COc1cc2nc(C)nc(N[C@H](C)c3cc(N)cc(C(F)(F)F)c3)c2cc1O[C@H]1CCOC1 [BI-3406 (SOSi)] + C=CC(=O)N1CCN(c2nc(=O)n(-c3c(C)ccnc3C(C)C)c3nc(-c4c(O)cccc4F)c(F)cc23)[C@@H](C)C1 [sotorasib]
combination cScore with sotorasib [1]: 9.14 | combination cScore with sotorasib [2]: 13 | combination cScore with sotorasib [3]: 28.9

Nc1cc(C(F)(F)F)c(-c2cc(N3CCOCC3)nc(N3CCOCC3)n2)cn1 [BKM120] + C=CC(=O)N1CCN(c2nc(=O)n(-c3c(C)ccnc3C(C)C)c3nc(-c4c(O)cccc4F)c(F)cc23)[C@@H](C)C1 [sotorasib]
combination cScore with sotorasib [1]: 15.9 | combination cScore with sotorasib [2]: 4.4 | combination cScore with sotorasib [3]: 16.9

Cc1nc(NC(=O)N2CCC[C@H]2C(N)=O)sc1-c1ccnc(C(C)(C)C(F)(F)F)c1 [BYL-719] + C=CC(=O)N1CCN(c2nc(=O)n(-c3c(C)ccnc3C(C)C)c3nc(-c4c(O)cccc4F)c(F)cc23)[C@@H](C)C1 [sotorasib]
combination cScore with sotorasib [1]: 24.4 | combination cScore with sotorasib [2]: 5.72 | combination cScore with sotorasib [3]: 24.8

COC(=O)[C@]12CCC(C)(C)C[C@H]1[C@H]1C(=O)C=C3[C@@]4(C)C=C(C#N)C(=O)C(C)(C)[C@@H]4CC[C@@]3(C)[C@]1(C)CC2 [Bardoxolone methyl] + C=CC(=O)N1CCN(c2nc(=O)n(-c3c(C)ccnc3C(C)C)c3nc(-c4c(O)cccc4F)c(F)cc23)[C@@H](C)C1 [sotorasib]
combination cScore with sotorasib [1]: 3 | combination cScore with sotorasib [2]: -1.43 | combination cScore with sotorasib [3]: 13

O=C(/C=C/c1cccc(S(=O)(=O)Nc2ccccc2)c1)NO [Belinostat] + C=CC(=O)N1CCN(c2nc(=O)n(-c3c(C)ccnc3C(C)C)c3nc(-c4c(O)cccc4F)c(F)cc23)[C@@H](C)C1 [sotorasib]
combination cScore with sotorasib [1]: 9.09 | combination cScore with sotorasib [2]: -2.69 | combination cScore with sotorasib [3]: 10.8

Cc1c(N)nc([C@H](CC(N)=O)NC[C@H](N)C(N)=O)nc1C(=O)N[C@H](C(=O)N[C@H](C)[C@@H](O)[C@H](C)C(=O)N[C@H](C(=O)NCCc1nc(-c2nc(C(=O)NCCC[S+](C)C)cs2)cs1)[C@@H](C)O)[C@@H](OC1OC(CO)C(O)C(O)C1OC1OC(CO)C(O)C(OC(N)=O)C1O)c1cnc[nH]1 (stereo not given in full) [Bleomycin] + C=CC(=O)N1CCN(c2nc(=O)n(-c3c(C)ccnc3C(C)C)c3nc(-c4c(O)cccc4F)c(F)cc23)[C@@H](C)C1 [sotorasib]
combination cScore with sotorasib [1]: 11.1 | combination cScore with sotorasib [2]: -4.36 | combination cScore with sotorasib [3]: 19.9

CC(C)C[C@H](NC(=O)[C@H](Cc1ccccc1)NC(=O)c1cnccn1)B(O)O [Bortezomib] + C=CC(=O)N1CCN(c2nc(=O)n(-c3c(C)ccnc3C(C)C)c3nc(-c4c(O)cccc4F)c(F)cc23)[C@@H](C)C1 [sotorasib]
combination cScore with sotorasib [1]: -5.84 | combination cScore with sotorasib [2]: 0.21 | combination cScore with sotorasib [3]: 5.05

COc1cc(Nc2c(C#N)cnc3cc(OCCCN4CCN(C)CC4)c(OC)cc23)c(Cl)cc1Cl [Bosutinib] + C=CC(=O)N1CCN(c2nc(=O)n(-c3c(C)ccnc3C(C)C)c3nc(-c4c(O)cccc4F)c(F)cc23)[C@@H](C)C1 [sotorasib]
combination cScore with sotorasib [1]: 11.2 | combination cScore with sotorasib [2]: 5.71 | combination cScore with sotorasib [3]: 8.9

CC[C@H](Nc1ncnc2[nH]cnc12)c1nc2cccc(F)c2c(=O)n1-c1ccccc1 [Cal-101] + C=CC(=O)N1CCN(c2nc(=O)n(-c3c(C)ccnc3C(C)C)c3nc(-c4c(O)cccc4F)c(F)cc23)[C@@H](C)C1 [sotorasib]
combination cScore with sotorasib [1]: 7.76 | combination cScore with sotorasib [2]: 3.19 | combination cScore with sotorasib [3]: 29.1

O=P1(N(CCCl)CCCl)NCCCO1 (stereo not given) [Cyclophosphamide] + C=CC(=O)N1CCN(c2nc(=O)n(-c3c(C)ccnc3C(C)C)c3nc(-c4c(O)cccc4F)c(F)cc23)[C@@H](C)C1 [sotorasib]
combination cScore with sotorasib [1]: -10.5 | combination cScore with sotorasib [2]: 4.33 | combination cScore with sotorasib [3]: -0.02
